Earlier results as cited in patent US20100209503A1, “Bitter Taste Masking Dosage Form” (priority 2005, published 2010).
Counter-ions that a name gives are not always drawn.

Conditions: expression of General Notices of Japanese Pharmacopoeia 14th revision

| SMILES | solubility in water |
| --- | --- |
| Cc1c(C(C)C)c(=O)n(-c2ccccc2)n1C [isopropylantipyrine] | hardly soluble (not less than 0.001 g/mL and less than 0.01 g/mL) |
| NC(=O)c1cccnc1 [nicotinic acid amide] | easily soluble (not less than 0.1 g/mL and less than 1.0 g/mL) |
| CN(C)C(=O)c1nc(CNC(=O)CN)n(-c2ccc(Cl)cc2C(=O)c2ccccc2Cl)n1 [rilmazafone hydrochloride] | slightly soluble (not less than 0.033 g/mL and less than 0.1 g/mL) |
